In PubChem BioAssay AID1259407 (Chemical Carcinogenesis Research Information System (CCRIS), 2018):
Activity calls are given as the source filed them. How the calls were made is not given here.

System: CCRIS mutagenicity, Ames/micronucleus/aberration tests
Assay: CCRIS mutagenicity studies

With `CC(=O)Nc1ccc2c(c1)Cc1ccccc1-2` the mutagenic call (Test System: AMES SALMONELLA TYPHIMURIUM, Strain/Indicator: TA1537, Metabolic Activation: NONE, Method: STANDARD PLATE) was “inactive; negative”, the mutagenic call (Test System: AMES SALMONELLA TYPHIMURIUM, Strain/Indicator: TA1537, Metabolic Activation: RAT, LIVER, S-9, AROCLOR 1254, Method: SPIRAL ASSAY) was “inactive; negative” and the mutagenic call (Test System: AMES SALMONELLA TYPHIMURIUM, Strain/Indicator: TA1537, Metabolic Activation: RAT, LIVER, S-9, PHENOBARBITAL, Method: STANDARD PLATE) was “active; positive”. For the same molecule, the mutagenic call (Test System: AMES SALMONELLA TYPHIMURIUM, Strain/Indicator: TA1538, Metabolic Activation: NONE, Method: STANDARD PLATE) was “inactive; negative”, the mutagenic call (Test System: AMES SALMONELLA TYPHIMURIUM, Strain/Indicator: TA1538, Metabolic Activation: RAT, LIVER, CYTOSOL, 2-ACETYLAMINOFLUORENE, Method: STANDARD PLATE) was “active; positive” and the mutagenic call (Test System: AMES SALMONELLA TYPHIMURIUM, Strain/Indicator: TA1538, Metabolic Activation: RAT, LIVER, CYTOSOL, AROCLOR 1254, Method: STANDARD PLATE) was “active; positive”. For the same molecule, the mutagenic call (Test System: AMES SALMONELLA TYPHIMURIUM, Strain/Indicator: TA1538, Metabolic Activation: RAT, LIVER, CYTOSOL, Method: STANDARD PLATE) was “active; positive”, the mutagenic call (Test System: AMES SALMONELLA TYPHIMURIUM, Strain/Indicator: TA1538, Metabolic Activation: RAT, LIVER, MICROSOMES, 2-ACETYLAMINOFLUORENE, Method: STANDARD PLATE) was “active; positive” and the mutagenic call (Test System: AMES SALMONELLA TYPHIMURIUM, Strain/Indicator: TA1538, Metabolic Activation: RAT, LIVER, MICROSOMES, AROCLOR 1254, Method: STANDARD PLATE) was “active; positive”. For the same molecule, the mutagenic call (Test System: AMES SALMONELLA TYPHIMURIUM, Strain/Indicator: TA1538, Metabolic Activation: RAT, LIVER, MICROSOMES, Method: STANDARD PLATE) was “active; positive”, the mutagenic call (Test System: AMES SALMONELLA TYPHIMURIUM, Strain/Indicator: TA1538, Metabolic Activation: RAT, LIVER, S-9, AROCLOR 1254, Method: STANDARD PLATE) was “active; positive” and the mutagenic call (Test System: AMES SALMONELLA TYPHIMURIUM, Strain/Indicator: TA1538, Metabolic Activation: RAT, LIVER, S-9, KC500 OR PHENOBARBITAL, Method: LIQUID SUSPENSION) was “active; positive”. For the same molecule, the mutagenic call (Test System: AMES SALMONELLA TYPHIMURIUM, Strain/Indicator: TA1538, Metabolic Activation: RAT, LIVER, S-9, PHENOBARBITAL, Method: STANDARD PLATE) was “active; positive”, the mutagenic call (Test System: AMES SALMONELLA TYPHIMURIUM, Strain/Indicator: YG1024, Metabolic Activation: HUMAN, HEPATOMA CELLS, BENZO[A]ANTHRACENE, Method: PREINCUBATION) was “active; positive” and the mutagenic call (Test System: AMES SALMONELLA TYPHIMURIUM, Strain/Indicator: YG1024, Metabolic Activation: HUMAN, HEPATOMA CELLS, Method: PREINCUBATION) was “active; positive”. The mutagenic call (Test System: AMES SALMONELLA TYPHIMURIUM, Strain/Indicator: YG1024, Metabolic Activation: RAT, LIVER, S-9, AROCLOR 1254, Method: PREINCUBATION) was “active; positive”, the mutagenic call (Test System: AMES SALMONELLA TYPHIMURIUM, Strain/Indicator: YG1024, Metabolic Activation: RAT, LIVER, S-9, Method: PREINCUBATION) was “active; positive” and the mutagenic call (Test System: CHINESE HAMSTER OVARY, Strain/Indicator: AS52/6-THIOGUANINE, Metabolic Activation: NONE) was “inactive; negative”. For the same molecule, the mutagenic call (Test System: CHINESE HAMSTER OVARY, Strain/Indicator: AS52/6-THIOGUANINE, Metabolic Activation: RAT LIVER S-9, 2-ACETYLAMINOFLUORENE) was “active; positive”, the mutagenic call (Test System: CHINESE HAMSTER OVARY, Strain/Indicator: CHO-K1-BH4 (HGPRT), Metabolic Activation: RAT, LIVER, S-9, AROCLOR, Method: SUSPENSION/PLATE) was “active; positive” and the mutagenic call (Test System: CHINESE HAMSTER V-79, Strain/Indicator: V-79/6-THIOGUANINE, Metabolic Activation: HAMSTER, LIVER, S-9, AROCLOR 1254, Method: SUSPENSION/PLATE) was “inactive; negative”. For the same molecule, the mutagenic call (Test System: CHINESE HAMSTER V-79, Strain/Indicator: V-79/6-THIOGUANINE, Metabolic Activation: NONE, Method: SUSPENSION/PLATE) was “inactive; negative”, the mutagenic call (Test System: CHINESE HAMSTER V-79, Strain/Indicator: V-79/6-THIOGUANINE, Metabolic Activation: RAT, LIVER, S-9, PHENOBARBITAL AND BETA-NAPHTHOFLAVONE, Method: SUSPENSION/PLATE) was “inactive; negative” and the mutagenic call (Test System: E. COLI, Strain/Indicator: WP2 UVRA, Metabolic Activation: HAMSTER, LIVER, S-9, Method: STANDARD PLATE) was “inactive; negative”. For the same molecule, the mutagenic call (Test System: E. COLI, Strain/Indicator: WP2 UVRA, Metabolic Activation: MOUSE, LIVER, S-9, Method: STANDARD PLATE) was “inactive; negative”, the mutagenic call (Test System: E. COLI, Strain/Indicator: WP2 UVRA, Metabolic Activation: NONE, Method: STANDARD PLATE) was “inactive; negative” and the mutagenic call (Test System: E. COLI, Strain/Indicator: WP2 UVRA, Metabolic Activation: RAT, LIVER, S-9, AROCLOR 1254, Method: STANDARD PLATE) was “inactive; negative”. The mutagenic call (Test System: E. COLI, Strain/Indicator: WP2 UVRA, Metabolic Activation: RAT, LIVER, S-9, Method: STANDARD PLATE) was “inactive; negative”, the mutagenic call (Test System: MOUSE LYMPHOMA, Strain/Indicator: L5178Y (TK+/TK-), Metabolic Activation: NONE, Method: SUSPENSION/PLATE) was “active; positive” and the mutagenic call (Test System: MOUSE LYMPHOMA, Strain/Indicator: L5178Y (TK+/TK-), Metabolic Activation: RAT, LIVER, S-9, AROCLOR 1254, Method: SUSPENSION/PLATE) was “active; positive”. For the same molecule, the mutagenic call (Test System: MOUSE LYMPHOMA, Strain/Indicator: L5178Y (TK+/TK-), Metabolic Activation: RAT, LIVER, S-9, Method: SUSPENSION/PLATE) was “active; positive”, the mutagenic call (Test System: UDS GUINEA PIG HEPATOCYTES, Strain/Indicator: THY INCORP, Metabolic Activation: NONE, Method: AUTORADIOGRAPHY) was “active; positive” and the mutagenic call (Test System: UDS GUINEA PIG HEPATOCYTES, Strain/Indicator: THY INCORP, Metabolic Activation: NONE, Method: LIQUID SCINTILLATION COUNTING) was “active; positive”. For the same molecule, the mutagenic call (Test System: UDS HAMSTER HEPATOCYTES, Strain/Indicator: THY INCORP, Metabolic Activation: NONE, Method: LIQUID SCINTILLATION COUNTING) was “active; positive”, the mutagenic call (Test System: UDS HUMAN FIBROBLASTS, Strain/Indicator: THY INCORP (NON-S-PHASE), Metabolic Activation: NONE, Method: AUTORADIOGRAPHY) was “active; positive” and the mutagenic call (Test System: UDS HUMAN HEPATOCYTES, Strain/Indicator: THY INCORP, Metabolic Activation: NONE, Method: AUTORADIOGRAPHY) was “active; positive”. For the same molecule, the mutagenic call (Test System: UDS MONKEY HEPATOCYTES, Strain/Indicator: THY INCORP, Metabolic Activation: NONE, Method: AUTORADIOGRAPHY) was “inactive; negative”, the mutagenic call (Test System: UDS MOUSE HEPATOCYTES, Strain/Indicator: THY INCORP, Metabolic Activation: NONE, Method: LIQUID SCINTILLATION COUNTING) was “inactive; negative” and the mutagenic call (Test System: UDS RAT HEPATOCYTES, Strain/Indicator: BROMODEOXYURIDINE INCORP, Metabolic Activation: NONE, Method: FLOW CYTOMETRIC ANALYSIS) was “active; positive”. For the same molecule, the mutagenic call (Test System: UDS RAT HEPATOCYTES, Strain/Indicator: THY INCORP, Metabolic Activation: AROCLOR 1254, Method: AUTORADIOGRAPHY) was “active; positive”, the mutagenic call (Test System: UDS RAT HEPATOCYTES, Strain/Indicator: THY INCORP, Metabolic Activation: NONE, Method: AUTORADIOGRAPHY) was “active; positive” and the mutagenic call (Test System: UDS RAT HEPATOCYTES, Strain/Indicator: THY INCORP, Metabolic Activation: NONE, Method: AUTORADIOGRAPHY (SERUM-FREE MEDIA)) was “active; positive”. The mutagenic call (Test System: UDS RAT HEPATOCYTES, Strain/Indicator: THY INCORP, Metabolic Activation: NONE, Method: IN VIVO) was “active; positive”, the mutagenic call (Test System: UDS RAT HEPATOCYTES, Strain/Indicator: THY INCORP, Metabolic Activation: NONE, Method: LIQUID SCINTILLATION) was “active; positive” and the mutagenic call (Test System: UDS RAT HEPATOCYTES, Strain/Indicator: THY INCORP, Metabolic Activation: NONE, Method: LIQUID SCINTILLATION COUNTING) was “active; positive”. For the same molecule, the mutagenic call (Test System: UDS RODENT HEPATOCYTES, Strain/Indicator: THY INCORP (NON-S-PHASE), Metabolic Activation: NONE, Method: AUTORADIOGRAPHY) was “active; positive”, the mutagenic call (Test System: UDS RODENT HEPATOCYTES, Strain/Indicator: THY INCORP (NON-S-PHASE), Method: AUTORADIOGRAPHY) was “active; positive” and the mutagenic call (Test System: UDS RODENT HEPATOCYTES, Strain/Indicator: THY INCORP (NON-S-PHASE), Method: LIQUID SCINTILLATION COUNTING) was “active; positive”. The mutagenic call (Test System: UDS, Strain/Indicator: HEPG2/THYMIDINE INCORPORATION, Metabolic Activation: NONE, Method: AUTORADIOGRAPHY) was “active; positive”.
